Assays:
[1] = Liquid-liquid extraction of iodine from nitric acid solution into the organic solvent (distribution coefficient Dex, gamma spectrometry); assay type: physicochemical; settings: equal volumes; for coefficient de distribution Dex de l'iode: first aqueous solution HNO3 3 mol/L, 125I 1500 kBq/L, ratio organic/aqueous iodine concentration at equilibrium
Method: Dans un premier temps, on met en contact, dans un tube en polypropylène étanche, une première solution aqueuse d'acide nitrique de concentration 3 mol/L contenant de l'iode ^125I, à une teneur de 1500 kBq/L avec une phase organique contenant du 1,2-NPHE. Les volumes de la solution aqueuse et de la phase organique sont égaux. L'ensemble est agité entre 10 minutes et une heure de façon douce par un dispositif approprié et ultérieurement mis dans une centrifugeuse pour une durée de 10 minutes à 4000 rpm.
On mesure le coefficient de distribution Dex de l'iode entre la première solution aqueuse et la phase organique, ce coefficient correspondant au rapport de la concentration en iode en phase organique à la concentration en iode en solution aqueuse à l'équilibre. Les concentrations en iode sont mesurées par spectrométrie gamma.

[2] = Re-extraction of iodine from the loaded organic solvent into aqueous sodium hydroxide solution (distribution coefficient Dréex); assay type: physicochemical
Excerpt: Dans un deuxième temps, on met en contact la phase organique après extraction et après élimination de la première solution aqueuse, avec une deuxième solution aqueuse de réextraction, ladite solution étant une solution aqueuse de soude, les volumes de phase organique et de solution de réextraction étant sensiblement égaux.
Différents essais ont été effectués en faisant varier la concentration en soude de la deuxième solution aqueuse. On mesure les coefficients de distribution Dréex de l'iode, qui pour la réextraction correspond au rapport de la concentration en iode dans la seconde solution aqueuse à la concentration en iode en phase organique.

Structure (SMILES)	coefficient de distribution Dex de l'iode [1]	Dréex ([2]; soude 0,1 mol/L (10^-1 mol/L))	other results
CCCCCCOc1ccccc1[N+](=O)[O-] [1,2-NPHE, 1,2-nitrophénylhexyléther]	3	5,7	% d'extraction ([1]; corresponds to Dex of 3, HNO3 3 mol/L): 75%; Dréex ([2]; soude 0,5 mol/L): 6,6; Dréex ([2]; soude 0,6 mol/L): 7,6; Dréex ([2]; soude 1,5 mol/L): 6,6; Dréex ([2]; soude 1 mol/L): 7,0; Dréex ([2]; soude 2 mol/L, ratio aqueous/organic): 6,3; Dréex ([2]; soude 5.10^-2 mol/L): 5,5; Dréex ([2]; soude 5.10^-3 mol/L): 0,04; Dréex ([2]; soude 10^-1 mol/L with borohydrure de sodium 10^-3 mol/L): 5,8; Dréex ([2]; soude 10^-2 mol/L): 4,9; Dréex ([2]; soude 10^-3 mol/L): 0,02; Dréex ([2]; soude 10^-4 mol/L): 0
CCCCCCCCOc1ccccc1[N+](=O)[O-] [1,2-NPOE, 1,2-nitrophényloctyléther]	2,9	1,7	
CC(C)c1cccc(C(C)C)c1 [1,3-diisopropylbenzène]	2,3	2,3	
CC(=O)CC(C)C [4-méthyl-1,2-pentanone, reference compound]	9,1	0,012	
CCCCCC(=O)O [Acide Hexanoique, acide hexanoïque, reference compound]	4,1	0,04	
CCCCOC(C)=O [Acétate de butyle, acétate de butyle, reference compound]	6,6	0,014	
CC(C)CCCCCCCCCCO [Isotridécanol, isotridécanol, reference compound]	5,2	0,028	
CCCCCCCCO [Octanol, octanol, reference compound]	8,7	0,023	
CCCCCC [hexane]	1,5	4,2	
CCCCCCc1ccccc1 [hexylbenzène]	2.7	11.6	

— patent publication EP1455919B1, “IODINE EXTRACTION METHOD” (Commissariat à l'Énergie Atomique et aux Énergies …, priority 2001, dated 2003)
